Measured values reported in publication PMC9697438, “Therapeutic Potential of 2-Methylquinazolin-4(3H)-one as an Antiviral Agent against Influenza A Virus-Induced Acute Lung Injury in Mice” (Molecules, 2022).
Values after ≈ are worked out from the molar mass of the structure shown. Like-named read-outs stand apart in the source and are kept apart here.

Legend:
[1] = tested on: influenza virus H1N1 (A/FM/1/47); details: for lung index: day 4, p < 0.001 vs model
[2] = tested on: cytokines in lung homogenates; test: ELISA of cytokines in lung tissue homogenates of H1N1-infected mice; format: in vivo, BALB/c mice; details: for expression level of IL-10 in lung homogenates / expression level of INF-γ in lung homogenates: C1 10 mg/kg, Os. 20 mg/kg, vs H1N1 virus group; for IL-1β level in lung homogenates / IL-6 level in lung homogenates / MCP-1 production in lung homogenates / TNF-α level in lung homogenates: C1 2.5, 5, 10 mg/kg, oseltamivir phosphate 20 mg/kg, vs model group, dose-dependent, p < 0.001, day 4
Procedure: (§1) Five-week-old healthy male BALB/c mice (n = 6 per group) were maintained in pathogen-free individual cages with free access to drinking water and sterilized food, as described previously. The mice were randomly allocated into the following groups: normal control group, H1N1 model group, C1 (2.5, 5, 10 mg/kg) treatment group, and positive control group treated with oseltamivir (20 mg/kg, positive control). Except for normal controls, the rest of mice were intranasally infected with 30 μL of diluted H1N1virus (3LD50) after light anesthesia. Negative control mice (normal group) were challenged by inhaling equal volumes (30 μL) of virus diluent as the other mice. Then, 2 h later, C1 (2.5, 5, 10 mg/kg) and Oseltamivir (20 mg/kg) dissolved in 5% CMC-Na solution were given to mice (0.1 mL/10 g) once per day (i.g.) at day 0 (D0), day 1 (D1), day 2 (D2) and day 3 (D3) after infection with H1N1 virus. At the same time, normal and model groups were administered equivalent amounts of 0.5% CMC-Na in the same way. Post-infection on day 4, the mice were sacrificed to collect blood plasma, lung and liver, which were weighed.
Pulmonary tissue homogenates were collected from mice lungs by centrifugation at 4500 rpm for 20 min. BCA assay was used to quantify the total protein in the supernatant of lung homogenates. Cytokine levels of IL-1β, IL-6, TNF-α, IL-10, MCP-1, INF-γ and INF-α were determined, as instructed by the manufacturer.
Figure 5 C1-alleviated lung injury in mice after 4 days of administration (n = 6, means ± S.D.); the experiment design is the same as Figure 3. Concentration of chemokines/cytokines/interferon was measured on day 4 post-infection by ELISA in lung homogenates (n = 6). (A) IL-6; (B) IL-1β; (C) TNF-α; (D) MCP-1; (E) IL-10; (F) IFN-γ.

H1N1 virus = test: microbe, parasite or virus in culture; format: cell-based, influenza A virus; details: for IC50: Influenza A virus, H1N1, MDCK, 72 h
A549 cells [3] = test: MTT cytotoxicity assay (TC50)
H1N1 influenza virus = test: H1N1-induced ALI in mice treated with EA extract: lung index, liver index, body weight, H&E; format: in vivo
neuraminidase (NA) = test: Neuraminidase activity assay in lung homogenates of H1N1-infected mice; format: in vivo, BALB/c mice
Procedure: as §1, with “At the same time, normal and model groups were administered equivalent amounts of 0.5% CMC-Na in the same way. Post-infection on day 4, the mice were sacrificed to collect blood plasma, lung and liver, which were weighed.” left out
Viral titers were measured using neuraminidase (NA) assay kit designed to detect antiviral effects. […] A reaction mixture consisted of 10 μL lung homogenates, 70 μL detection buffer, 10 μL Mill-Q water and 10 μL NA fluorescence substrate in a 96-well plate. […] The fluorescence of the mixture was quantified at 322 nm of excitation wavelength and 450 nm of emission wavelength with a muti-mode microplate read (Waltham, VT, USA). […]

Solubility observation = format: physicochemical; details: sterile water
[4] = tested on: influenza A virus nucleoprotein (NP); test: Immunohistochemistry of viral nucleoprotein in lung tissue of H1N1-infected mice; format: in vivo, BALB/c mice; details: C1-treated mice vs indirubin-treated mice and model group; day 4
Procedure: Five-week-old healthy male BALB/c mice (n = 6 per group) were maintained in pathogen-free individual cages with free access to drinking water and sterilized food, as described previously. The mice were randomly allocated into the following groups: normal control group, H1N1 model group, C1 (2.5, 5, 10 mg/kg) treatment group, and positive control group treated with oseltamivir (20 mg/kg, positive control). Except for normal controls, the rest of mice were intranasally infected with 30 μL of diluted H1N1virus (3LD50) after light anesthesia. Negative control mice (normal group) were challenged by inhaling equal volumes (30 μL) of virus diluent as the other mice. […]
Influenza virus load, expression of NPs and ionized calcium binding adaptor molecule-1(Iba-1) were determined using IHC. […]
Figure 4 Suppression of H1N1 viral replication in vivo by C1, the experimental protocol is the same as Figure 3. (A) The NA activity in lung homogenates by fluorescence effect; (B) The expression level of INF-α in lung homogenates by ELISA; (C) The expression of NP in lung tissue, the representative IHC pathological images of the lung on day 4 post-infection, the red arrow indicates viral N protein-positive signal. […]

[5] = tested on: ionized calcium binding adaptor molecule-1 (Iba-1); parameters: species or system BALB/c mice; details: mouse, in vivo
A549 cells [6] = details: human
hepatitis C virus = tested on: hepatitis C virus; parameters: method as in earlier work; details: cited from earlier work

In the case of CCOC(=O)C1=C[C@@H](OC(CC)CC)[C@H](NC(C)=O)[C@@H](N)C1 [Os., Oseltamivir phosphate, reference compound], the “weight rate of mice raised” value ([1]; Os. 20 mg/kg, days 0-4) is reported as 21.6%, the “lung histological damage (H&E)” value ([1]; mouse, in vivo) is reported as “significantly less” and the “expression level of IL-10 in lung homogenates” value [2] is reported as “higher”. The “expression level of INF-γ in lung homogenates” value [2] was “higher”, the “IL-1β level in lung homogenates” value [2] was “significantly reduced” and the “IL-6 level in lung homogenates” value [2] was “significantly reduced”. For the same compound, the “MCP-1 production in lung homogenates” value [2] was “significantly reduced” and the “TNF-α level in lung homogenates” value [2] was “significantly reduced”.
For O=C1c2cc(O)cc(O)c2CN1c1ccc(O)cc1 [Compound C4, clitocybin A], the antiviral activity (H1N1 virus) was “did not exert any antiviral activity” and the TC50 (A549 cells [3]) was 167.7 µg/mL (≈ 652 µM).
In the case of NC(=O)c1ncn([C@@H]2O[C@H](CO)[C@@H](O)[C@H]2O)n1 [Ribavrin, Ribavirin], the “body weight over 5 days” value (H1N1 influenza virus; EA extract 10 mg/kg, Ribavirbin 100 mg/kg, day 1 to day 5) is reported as “gained weight”, the “lung tissue histological changes (H&E)” value (H1N1 influenza virus; EA extract and Ribavirin groups compared to the infected group) is reported as “relieved tissue consolidation” and the lung index (H1N1 influenza virus; Ribavirbin 100 mg/kg i.g. once daily 4 days, model 11.58 ± 0.39, p < 0.001) is reported as 7.32 ± 0.39 mg/g. The liver index (H1N1 influenza virus; Ribavirbin 100 mg/kg, model 50.73 ± 0.58, normal 62.79 ± 1.24) was 59.60 ± 1.68 mg/g and the IC50 (H1N1 virus) was 37.2 µg/mL (≈ 152 µM).
For Cc1nc2ccccc2c(=O)[nH]1 [Compound C1, 2-Methylquinazolin-4(3H)-one], the IC50 (H1N1 virus) was 23.8 µg/mL (≈ 149 µM), the “NA activity in lung homogenates” value (neuraminidase (NA); C1 2.5 mg/kg, vs model control) was “no differences” and the “NA activity in lung homogenates” value (neuraminidase (NA); C1 5, 10 mg/kg, vs model group, p < 0.05) was “significantly lower”. The solubility (Solubility observation) was “soluble”, the “viral N protein-positive signals in lung tissue” value [4] was “fewer positive signals” and the “Iba-1 positive signals in lung tissue (macrophage recruitment)” value [5] was “fewer positive signals”. The lung index ([1]; C1 2.5 mg/kg i.g. once daily D0-D3, model 10.27 ± 0.50, normal 6.40 ± 0.14) was 8.85 ± 0.47 mg/g, the “weight rate of mice raised” value ([1]; C1 2.5 mg/kg, days 0-4, model decreased 4.5%) was 2% and the lung index ([1]; C1 5 mg/kg i.g. once daily D0-D3, model 10.27 ± 0.50) was 8.60 ± 0.29 mg/g. For the same compound, the “weight rate of mice decreased” value ([1]; C1 5 mg/kg, days 0-4, model decreased 4.5%) was 2%, the lung index ([1]; C1 10 mg/kg i.g. once daily D0-D3, model 10.27 ± 0.50) was 8.36 ± 0.28 mg/g and the “weight rate of mice raised” value ([1]; C1 10 mg/kg, days 0-4) was 0.2%. The “lung histological damage (H&E)” value ([1]; mouse, in vivo) was “significantly less”, the “toxicity on liver and spleen” value ([1]; mouse, in vivo, po) was “no toxicity” and the TC50 (A549 cells [3]) was 79.7 µg/mL (≈ 498 µM). The “expression level of IL-10 in lung homogenates” value [2] was “higher”, the “expression level of INF-γ in lung homogenates” value [2] was “higher” and the “IL-1β level in lung homogenates” value [2] was “significantly reduced”. For the same compound, the “IL-6 level in lung homogenates” value [2] was “significantly reduced”, the “MCP-1 production in lung homogenates” value [2] was “significantly reduced” and the “TNF-α level in lung homogenates” value [2] was “significantly reduced”. For the same compound, the “production of IFN-α in lung homogenates” value ([2]; after treatment with C1, ELISA) was “remarkably decreased”.
In the case of CC1(C)C[C@H](O)C[C@@]2(C)OC(=O)C=C12 [Compound C2, loliolide], the antiviral activity (H1N1 virus) is listed as “did not exert any antiviral activity”, the TC50 (A549 cells [6]) is listed as 26.7 µg/mL (≈ 136 µM) and the “inhibition of the hepatitis C virus” value (hepatitis C virus) is listed as “potent inhibitor”.
With O=C1Nc2ccccc2/C1=C1/Nc2ccccc2C1=O [indirubin, reference compound] the “Iba-1 positive signals in lung tissue (macrophage recruitment)” value [5] was “fewer positive signals”, the “lung edema measured as lung index” value ([1]; mouse, in vivo) was “minimal effect” and the “lung histological damage (H&E)” value ([1]; mouse, in vivo) was “no evident histological alteration”.
In the case of Cc1nc2ccccc2c(=O)n1-c1ccccc1O [Compound C3, 3-(2′-Hydroxyphenyl)-2-methyl-4(3H)-quinazolinone], the IC50 (H1N1 virus) is reported as 100 µg/mL (≈ 396 µM) and the TC50 (A549 cells [3]) is reported as 106.8 µg/mL (≈ 423 µM).
